Results from patent US9650427B2, “Modulators of antiviral signaling pathways and therapeutic uses thereof” (priority 2011, dated 2017).

Tests used:
RLR/MAVS pathway = test: PolyIC-induced IFN expression in polarized T84 cells, quantitative RT-PCR; format: cell-based, human; settings: T84 cells pretreated 1 hour with peptide/inhibitor, then PolyIC for 5 hours; FIG. 2
Description: FIG. 2 includes graphs showing the inhibitory effects of the novel RLR/MAVS signaling inhibitor. The results are from T84 cells that were treated for 1 hr with the inhibitors shown and then treated with PolyIC (PIC) for 5 hours. Cytokine expression was then assessed by qPCR. The y-axis indicates fold induction over untreated cells (UI).
To determine if the MAVS peptide can block RLR signaling in human cells, experiments were performed in the human intestinal epithelial cell (IEC) line T84 comparing the peptide to a previously characterized antennapedia-peptide that targets the TLR adaptor MyD88. These cells were chosen because it is well-known that many viruses penetrate the intestinal epithelium and it has been shown that they respond naturally to both TLR and RLR ligands (FIG. 2 and data not shown). Polarized T84 cells were pretreated for 1 hour with each peptide and then treated for 5 hours with synthetic viral RNA PolyIC, which activates signaling by […]. […] This inhibitory affect was specific, as the IFN expression was unaffected in cells treated with control peptides.

[1] = system: antiviral responses in human cells; test: Blocking of antiviral responses in human cells; format: cell-based; settings: at micromolar concentrations
Text: Accordingly, described herein is a cell-permeable peptide inhibitor of antiviral pathways that operates in every human cell. It consists of the cell penetrating domain of the Drosophila antennapedia protein and amino acids 50-73 of the human MAVS protein. […]. This peptide represents the first described means of blocking antiviral responses in human cells before or at any time after infection by a virus. Moreover, this molecule can serve as a therapeutic to treat inflammatory autoimmune diseases (e.g., those that are caused by inappropriate activation of antiviral responses). No other method currently exists to accomplish these goals.

Compound	expression of Type I IFN (IFNβ) and Type III IFN IL-29 in response to PolyIC (RLR/MAVS pathway)	antiviral responses (expression of Type I and III interferons and interferon stimulated genes, including viperin) [1]
CCN(CC)CCCC(C)Nc1ccnc2cc(Cl)ccc12 (stereo not drawn) [chloroquine, reference compound]	neither chloroquine (which blocks TLRs that detect viral RNA) nor inhibitors of the dsRNA dependent kinase PKR, affected	–
GNRDTLWHLFNTLQRRPGWVEYFI-RQIKIWFQNRRMKWKK (GNRDTLWHLFNTLQRRPGWVEYFIRQIKIWFQNRRMKWKK) [MAVS peptide, fusion peptide of amino acids 50-73 of MAVS and the cell penetrating domain of the antennapedia protein]	completely abolished	blocks antiviral responses in human cells at micromolar concentrations
